According to patent US20220031710A1, “USE OF ERK5 INHIBITORS FOR TREATING GLIOMAS IN PEDIATRIC SUBJECTS” (UNIVERSITY OF PITTSBURGH - OF THE COMMONWEALTH SYSTEM OF …, priority 2019, published 2022):

What was measured:
DIPG-IV cells = assay: Cleaved Caspase 3/7 assay in DIPG-IV cells expressing ERK5 constructs; type: cell-based, human; conditions: 500 nM; DIPG-IV cells expressing ERK5-HA or ERK5-HA T733E vs empty vector
MYC = assay: Western blot of phospho MYC S62 and total MYC in DIPG cells; type: cell-based, human; conditions: DIPG-IV and SF8628 cells; 500 nM
Procedure: (§1) Cell pellets were lysed in PLC lysis buffer containing protease and phosphatase inhibitors (Roche Inc.). Protein lysates were quantified using the bicinchoninic acid (BCA) assay (Pierce Chemical Co., Rockford, Ill.). 30 μg of total protein lysate was loaded in 10% SDS-PAGE gels and electrophoresed. Proteins were transferred to PVDF membranes using a semi-dry transfer apparatus (Bio-Rad). Membranes were blocked for one hour and probed for various proteins overnight in 5% non-fat milk or 5% BSA in Tris Buffered Saline Solution, 0.5% Tween-20 (TBST) or Phosphate Buffered Saline Solution with 0.5% Tween-20 (PBST). Membranes were washed for 5 mins in TBST (3×) and incubated with horseradish peroxidase-conjugated antibodies specific for the primary antibody (BioRad Laboratories, Inc., CA, USA). Binding was detected using Chemiluminescence Reagent Plus (PerkinElmer Inc., MA, USA).

MYCN = MYCN qRT-PCR and western blot in DIPG-13p cells; type: cell-based, human
Procedure: as §1, with “Membranes were washed for 5 mins in TBST (3×) and incubated with horseradish peroxidase-conjugated antibodies specific for the primary antibody (BioRad Laboratories, Inc., CA, USA).” left out, “USA). […]” for “USA).”
Total RNA isolation was performed using an RNA extraction kit according to the manufacturer's instructions (RNeasy kit, Qiagen). cDNA was synthesized from 100 ng of total RNA using the Quantitect RT kit which included DNAse treatment (Qiagen). Quantitative real-time PCR was performed on 10 ng of cDNA template in a final volume of 20 μl using the Chromo4 Real Time PCR detector (MJ Research, a Division of Bio-Rad Laboratories Ltd) using SYBR green fluorescence. RT-PCR data was analyzed using Opticon Monitor 3.1.3 analysis software. […]

[1] = system: SF8628 intracranial xenografts; assay: SF8628 orthotopic xenograft model; type: in vivo, mice
Procedure: Paraffin embedded blocks were cut in 5 μm sections. Slides were processed as follows: de-waxed in xylene followed by rehydration in a standard alcohol series. Antigen retrieval was by pressure cooking for 20 minutes in citrate buffer (pH 6.0), followed by blocking of endogenous peroxidase in 3% H2O2. The antibodies were added and incubated overnight at 4° C. Antibodies were detected using a secondary-HRP labeled mouse or rabbit antibody detection system (Dako EnVision+ System-HRP cat #k4401, cat #k4403) followed by addition 3,3′-Diaminobenzidine (DAB) chromagen (Vector Labs) for visualization. Sections were counter-stained with hematoxylin (Fisher Scientific Inc., Canada) and slides dehydrated in 70, 80, and 100% ethanol and xylene. Slides were cover slipped and mounted in Permount (Fisher Scientific Inc.). Antibodies and concentrations for IHC are as follows: Ki67 (1:100, Dako, cat #F7268). All images were captured on a Leica DM 100 microscope using Leica Application Suite Software (Switzerland, Version 3.8.0).
All animal procedures were carried out ethically according to animal user protocols approved by Institutional Animal Care Committee (IACUC). 4-6 week-old non-obese diabetic severe combined immune deficiency male or female mice (NOD-SCID-Prkdc^scid) were injected with 1×10^5 SU-DIPG-13p cells or 1×10^5 SF8628 DIPG cells. […]

ERK5 [2] = molecular target: T1, ERK5 (Homo sapiens, UniProt Q13164); assay: In vitro kinase assay of purified recombinant ERK5 and MYC; type: biochemical; set-up: purchased ThermoFisher Scientific A32872; conditions: 200 μM ATP, 30 minutes at 30° C.
T1 sequence (Q13164 whole entry): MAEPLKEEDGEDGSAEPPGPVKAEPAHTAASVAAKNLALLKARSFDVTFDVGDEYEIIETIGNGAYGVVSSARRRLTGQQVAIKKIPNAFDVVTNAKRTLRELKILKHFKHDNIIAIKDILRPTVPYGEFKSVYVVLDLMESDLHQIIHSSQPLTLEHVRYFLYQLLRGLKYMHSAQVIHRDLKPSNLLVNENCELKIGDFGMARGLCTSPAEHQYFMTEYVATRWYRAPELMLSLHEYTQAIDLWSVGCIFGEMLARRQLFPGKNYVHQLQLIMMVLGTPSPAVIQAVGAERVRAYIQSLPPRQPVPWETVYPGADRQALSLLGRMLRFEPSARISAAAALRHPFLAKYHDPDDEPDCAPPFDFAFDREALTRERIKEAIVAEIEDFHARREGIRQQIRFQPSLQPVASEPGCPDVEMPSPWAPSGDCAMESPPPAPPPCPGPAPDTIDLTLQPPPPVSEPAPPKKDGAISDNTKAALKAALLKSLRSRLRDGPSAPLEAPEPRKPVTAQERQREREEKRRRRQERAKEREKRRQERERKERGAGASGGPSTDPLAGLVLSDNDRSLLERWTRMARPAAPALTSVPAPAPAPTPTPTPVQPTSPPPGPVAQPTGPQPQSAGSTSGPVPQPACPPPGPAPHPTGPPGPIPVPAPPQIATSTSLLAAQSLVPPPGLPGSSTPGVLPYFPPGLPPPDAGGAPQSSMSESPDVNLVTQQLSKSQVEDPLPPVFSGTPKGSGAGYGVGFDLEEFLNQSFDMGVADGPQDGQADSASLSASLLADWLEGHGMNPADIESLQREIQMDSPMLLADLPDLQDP
Procedure: Purified active recombinant ERK5 protein was purchased from ThermoFisher Scientific (Cat #A32872) and purified recombinant MYC was purchased from Abcam (Cat #ab84132). Purified ERK5 and MYC were resuspended in 40 μl of 1× kinase buffer supplemented with 200 μM ATP, 0.25 μg substrate, and 1.0 μg purified recombinant and active kinase. Samples were incubated in the presence or absence of ERK5 inhibitors for 30 minutes at 30° C. The reaction was terminated with 20 μl 3×SDS sample buffer. Samples were then boiled at 100° C. for 5 minutes and then evaluated by western blotting using a phospho MYC ser62 antibody (1:1000). 1× Kinase Buffer recipe: 25 mM Tris (pH 7.5), 5 mM β-glycerophosphate, 2 mM DTT, 0.1 mM Na3VO4, 10 mM MgCl2.

ERK5 [3] = molecular target: T1, ERK5; assay: Western blot of ERK5 phosphorylation sites in DIPG cells; type: cell-based; set-up: endogenous in cells; host or cells: DIPG-007 and DIPG-IV cells; conditions: DIPG-007 and DIPG-IV cells
Procedure: as §1

## CCOc1cc(C(=O)N2CCC(N3CCN(C)CC3)CC2)ccc1Nc1ncc2c(n1)N(C1CCCC1)c1ccccc1C(=O)N2C [ERK5-IN-1, 11-cyclopentyl-2-[[2-ethoxy-4-[[4-(4-methyl-1-piperazinyl)-1-piperidinyl]carbonyl]phenyl]amino]-5,11-dihydro-5-methyl-6H-pyrimido[4,5b][1,4]benzodiazepin-6-one]
DIPG-IV cells
  cleaved Caspase 3/7 levels: reduced cleaved Caspase 3/7 levels
MYC
  phospho and total MYC: reduced
MYCN
  MYCN protein and transcript levels: down-regulation
[1]; 50 mg/kg for 2 weeks (2 cycles of 5 days on 2 days off), SF8628 intracranial xenografts
  median survival: 40 days
[1]; 50 mg/kg, SF8628 xenograft tumors, vs vehicle
  KI-67 staining: reduced
ERK5 [2]
  Phosphorylation of MYC(S62): inhibited
ERK5 [3]
  ERK5 Thr218/Tyr220 phosphorylation (regulated by MEK5): did not inhibit
ERK5 [3]; at 100 nM
  ERK5 auto-phosphorylation and ERK5 activity sites (Ser731 and Thr733): inhibit
